Patent US20260176320A1, “MODULATORS OF G-PROTEIN COUPLED RECEPTORS” (priority 2018, published 2026)
Where two headings read alike, the source gives them in different places.

Biological target: GLP-1R (Homo sapiens, UniProt P43220)
Assay: HitHunter cAMP assay (GLP-1R)
Format: cell-based
Details: cAMP; for Emax: read-out: (Emax) GLP-1R
Protocol: Suspension cells were harvested and resuspended in 1×HBSS (+10 mM HEPES, 625 μM IBMX, 0.2% BSA) according to the following procedure: 5 μL of 2× cell suspension+1× antibody were added to each well, where the optimal cell density was 10,000 cells per well in a low volume 384-well plate. Agonist serial dilutions in a separate 384 well dilution plate in a 22-point series of 2× dilutions of agonist in DMSO were performed as follows. 80 μL of the highest concentration of Agonist/DMSO was added to well No. 1. 40 μL was removed from well No. 1 and added it to well No. 2, followed by gentle mixing. […] This process was repeated until well No. 22. Additional serial dilutions for additional agonists were set up in a similar manner. 50 nL of each 2× agonist serial dilution was added in duplicate to the designated agonist rows of the assay plate using the Labcyte ECHO. Assay plate was incubated for 30 minutes at room temperature. Following agonist incubation, 5 μL of cAMP Antibody Reagent was added to all wells. […] Plates were spun down briefly. Assay plate was incubated for 1 hour at room temperature in the dark for the immunocompetition reaction to occur. […] Plates were spun down briefly. Assay plate was incubated O/N at room temperature in the dark. Samples were read on Tecan i-control plate reader using luminescence mode with 300 ms integration time. Data analysis was performed using GraphPad Prism.

[1] = Table 3A, read-out: EC50 GLP-1R/nM

Chain of GLP-1R (P43220 24-463): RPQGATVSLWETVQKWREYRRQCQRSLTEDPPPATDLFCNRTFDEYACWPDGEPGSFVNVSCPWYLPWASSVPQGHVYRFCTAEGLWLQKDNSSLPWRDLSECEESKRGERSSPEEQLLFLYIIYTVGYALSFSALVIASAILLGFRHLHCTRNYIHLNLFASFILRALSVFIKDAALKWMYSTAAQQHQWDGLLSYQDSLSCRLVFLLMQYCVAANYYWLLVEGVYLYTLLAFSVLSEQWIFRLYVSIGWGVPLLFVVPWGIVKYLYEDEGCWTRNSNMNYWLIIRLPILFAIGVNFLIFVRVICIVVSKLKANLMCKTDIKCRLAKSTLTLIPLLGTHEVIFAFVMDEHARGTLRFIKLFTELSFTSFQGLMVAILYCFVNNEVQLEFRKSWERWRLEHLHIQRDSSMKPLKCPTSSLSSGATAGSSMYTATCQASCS

SMILES	Emax (Table 3A)	EC50 [1]	EC50 (EC50 GLP-1R/nM, Table 3)	EC50 (EC50 GLP-1R/nM, Table 3A)	Emax (Table 3)
CCCCCCCCCCCCCCCC(=O)N[C@@H](CCC(=O)NCCCC[C@H](NC(=O)[C@H](CO)NC(=O)[C@@H]1CCCN1C(=O)[C@@H]1CCCN1C(=O)[C@@H]1CCCN1C(=O)[C@H](C)NC(=O)CNC(=O)[C@H](CO)NC(=O)[C@H](CO)NC(=O)[C@@H]1CCCN1C(=O)CNC(=O)CNC(=O)[C@H](C)NC(=O)[C@H](CC(C)C)NC(=O)[C@H](CC(C)C)NC(=O)[C@H](Cc1c[nH]c2ccccc12)NC(=O)[C@H](CC(N)=O)NC(=O)[C@@H](NC(=O)[C@H](Cc1ccccc1)NC(=O)[C@H](CCC(=O)O)NC(=O)C(C)(C)NC(=O)[C@H](C)NC(=O)[C@H](C)NC(=O)[C@H](CCC(N)=O)NC(=O)[C@H](CCCCN)NC(=O)[C@H](CC(=O)O)NC(=O)[C@H](CC(C)C)NC(=O)[C@H](Cc1ccc(O)cc1)NC(=O)[C@@H](NC(=O)[C@H](CO)NC(=O)[C@H](Cc1ccc(O)cc1)NC(=O)[C@H](CC(=O)O)NC(=O)[C@H](CO)NC(=O)[C@@H](NC(=O)[C@H](Cc1ccccc1)NC(=O)[C@@H](NC(=O)CNC(=O)[C@H](CCC(=O)O)NC(=O)C(=O)NCCN1CCCCC1=O)[C@@H](C)O)[C@@H](C)O)[C@@H](C)CC)C(C)C)C(N)=O)C(=O)O [Compound 215]	103%	1 to 10 nM	–	–	–
CCCCCCCCCCCCCCCC(=O)N[C@@H](CCC(=O)NCCCC[C@H](NC(=O)[C@H](CO)NC(=O)[C@@H]1CCCN1C(=O)[C@@H]1CCCN1C(=O)[C@@H]1CCCN1C(=O)[C@H](C)NC(=O)CNC(=O)[C@H](CO)NC(=O)[C@H](CO)NC(=O)[C@@H]1CCCN1C(=O)CNC(=O)CNC(=O)[C@H](C)NC(=O)[C@H](CC(C)C)NC(=O)[C@H](CC(C)C)NC(=O)[C@H](Cc1c[nH]c2ccccc12)NC(=O)[C@H](CC(N)=O)NC(=O)[C@@H](NC(=O)[C@H](Cc1ccccc1)NC(=O)[C@H](CCC(=O)O)NC(=O)C(C)(C)NC(=O)[C@H](C)NC(=O)[C@H](C)NC(=O)[C@H](CCC(N)=O)NC(=O)[C@H](CCCCN)NC(=O)[C@H](CC(=O)O)NC(=O)[C@H](CC(C)C)NC(=O)[C@H](Cc1ccc(O)cc1)NC(=O)[C@@H](NC(=O)[C@H](CO)NC(=O)[C@H](Cc1ccc(O)cc1)NC(=O)[C@H](CC(=O)O)NC(=O)[C@H](CO)NC(=O)[C@@H](NC(=O)[C@H](Cc1ccccc1)NC(=O)[C@@H](NC(=O)CNC(=O)[C@H](CCC(=O)O)NC(=O)CSCC(=O)NCCN1C(=O)CC(C)(C(C)C)C1=O)[C@@H](C)O)[C@@H](C)O)[C@@H](C)CC)C(C)C)C(N)=O)C(=O)O (mixture of isomers) [Compound 101]	92%	–	10 to 100 nM	10 to 100 nM	92%
CCCCCCCCCCCCCCCC(=O)N[C@@H](CCC(=O)NCCCC[C@H](NC(=O)[C@H](CO)NC(=O)[C@@H]1CCCN1C(=O)[C@@H]1CCCN1C(=O)[C@@H]1CCCN1C(=O)[C@H](C)NC(=O)CNC(=O)[C@H](CO)NC(=O)[C@H](CO)NC(=O)[C@@H]1CCCN1C(=O)CNC(=O)CNC(=O)[C@H](C)NC(=O)[C@H](CC(C)C)NC(=O)[C@H](CC(C)C)NC(=O)[C@H](Cc1c[nH]c2ccccc12)NC(=O)[C@H](CC(N)=O)NC(=O)[C@@H](NC(=O)[C@H](Cc1ccccc1)NC(=O)[C@H](CCC(=O)O)NC(=O)C(C)(C)NC(=O)[C@H](C)NC(=O)[C@H](C)NC(=O)[C@H](CCC(N)=O)NC(=O)[C@H](CCCCN)NC(=O)[C@H](CC(=O)O)NC(=O)[C@H](CC(C)C)NC(=O)[C@H](Cc1ccc(O)cc1)NC(=O)[C@@H](NC(=O)[C@H](CO)NC(=O)[C@H](Cc1ccc(O)cc1)NC(=O)[C@H](CC(=O)O)NC(=O)[C@H](CO)NC(=O)[C@@H](NC(=O)[C@H](Cc1ccccc1)NC(=O)[C@@H](NC(=O)CNC(=O)[C@@H](CCc1nn[nH]n1)NC(=O)CSCC(=O)NCCN1CCCCC1=O)[C@@H](C)O)[C@@H](C)O)[C@@H](C)CC)C(C)C)C(N)=O)C(=O)O [Compound 222]	99%	1 to 10 nM	–	–	–
